{"source": "patent US8268278B2", "about": "“Phosphorus-calcium-strontium compound and uses thereof in endodontic cements” (Centre National de la Recherche Scientifique, priority 2006, dated 2012)", "test_system": "polymicrobial inoculum taken from dental plaque", "test": "Inhibition of growth of a polymicrobial inoculum, diffusion in solid agar medium", "format": "cell-based", "details": "freshly prepared samples", "excerpt": "The activity of these two cements was verified on freshly prepared samples of cement and samples prepared 13 days previously.", "data": [{"smiles": "[Ca+2].[OH-].[OH-]", "note": "[Ca(OH)2, calcium hydroxide]", "values": [{"measurement": "RIZ (relative inhibition zone, compared with freshly prepared pure calcium hydroxide)", "value": 1}]}]}
